Reference: publication PMC6389848, “Characterization and structure‐guided engineering of the novel versatile terpene monooxygenase CYP109Q5 from Chondromyces apiculatus DSM436” (Microbial Biotechnology, 2018)

Assays:
CYP109B1 = biological target: T1, CYP109B1 (Bacillus subtilis, UniProt O34374); assay: in vitro biotransformation, GC-FID / GC-MS; assay type: biochemical; conditions: redox partners CamA/CamB from Pseudomonas putida, NAD(P)H, 1 mM substrate, 2 μM P450, pH 7.0, 30°C, 2 h
T1 construct: gene yjiB; purified enzyme; construct not described in main text
T1 sequence (O34374 1-396): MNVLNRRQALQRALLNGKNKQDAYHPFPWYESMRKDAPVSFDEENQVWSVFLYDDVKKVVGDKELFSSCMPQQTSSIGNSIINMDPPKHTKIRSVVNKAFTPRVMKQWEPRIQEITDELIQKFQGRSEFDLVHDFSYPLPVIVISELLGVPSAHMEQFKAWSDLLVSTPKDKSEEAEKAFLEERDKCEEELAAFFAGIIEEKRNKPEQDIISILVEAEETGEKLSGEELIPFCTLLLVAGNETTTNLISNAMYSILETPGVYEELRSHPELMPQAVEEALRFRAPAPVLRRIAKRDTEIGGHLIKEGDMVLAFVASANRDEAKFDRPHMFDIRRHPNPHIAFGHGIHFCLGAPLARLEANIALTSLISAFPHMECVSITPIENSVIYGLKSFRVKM

CYP109Q5 = biological target: T2, CYP109Q5 (Chondromyces apiculatus, UniProt A0A017T5A5); assay: in vitro biotransformation, HPLC; assay type: biochemical; conditions: redox partners CamA/CamB from Pseudomonas putida, NAD(P)H, 1 mM substrate, 2 μM P450, pH 7.0, 30°C
T2 construct: gene CAP_4855; native gene from genomic DNA in pBAD33, untagged, E. coli JW5510, partially purified by anion exchange
T2 sequence (A0A017T5A5 1-397): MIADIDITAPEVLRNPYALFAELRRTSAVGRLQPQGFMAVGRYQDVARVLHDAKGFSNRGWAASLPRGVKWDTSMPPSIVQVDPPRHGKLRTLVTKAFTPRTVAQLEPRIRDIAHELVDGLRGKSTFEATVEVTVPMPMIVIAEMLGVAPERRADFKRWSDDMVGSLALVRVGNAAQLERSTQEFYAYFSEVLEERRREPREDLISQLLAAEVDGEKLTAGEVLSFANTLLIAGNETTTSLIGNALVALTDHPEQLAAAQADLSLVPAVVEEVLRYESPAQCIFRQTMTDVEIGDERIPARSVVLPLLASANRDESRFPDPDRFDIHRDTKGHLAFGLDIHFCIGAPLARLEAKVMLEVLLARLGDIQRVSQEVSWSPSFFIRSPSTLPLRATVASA

SMILES | in vitro biotransformation, GC-FID / GC-MS (CYP109B1) | in vitro biotransformation, HPLC (CYP109Q5)
CC(=O)/C=C/C1=C(C)CCCC1(C)C [compound 1, β‐ionone] | The reference CYP109B1 hydroxylated β‐ionone exclusively in the allylic position | –
O=C(O)Cc1ccccc1Nc1c(Cl)cccc1Cl [compound 26, diclofenac] | – | CYP109Q5 also exhibited activities towards diclofenac, mefenamic acid, nerolidol, camphor
